Measured values taken from patent US20120065066A1, “NOVEL HERBICIDES” (SYNGENTA CROP PROTECTION LLC, priority 2009, published 2012).

How the values were obtained:
Type in all cases: in vivo
[1] = tested on: Alopecurus myosuroides (ALOMY); assay: Test Example B, post-emergence herbicidal test; settings: 312 h, evaluated after 13 days, 100=total damage to plant, 0=no damage to plant
Protocol: (§1) Seeds of a variety of test species were sown in standard soil in pots. After cultivation for one day (pre-emergence) or after 8 days cultivation (post-emergence) under controlled conditions in a glasshouse (at 24/16° C., day/night; 14 hours light; 65% humidity), the plants were sprayed with an aqueous spray solution derived from the formulation of the technical active ingredient in acetone/water (50:50) solution containing 0.5% Tween 20 (polyoxyethelyene sorbitan monolaurate, CAS RN 9005-64-5). The test plants were then grown in a glasshouse under controlled conditions in a glasshouse (at 24/16° C., day/night; 14 hours light; 65% humidity) and watered twice daily. After 13 days for pre and post-emergence, the test was evaluated (100=total damage to plant; 0=no damage to plant). Test Plants: Setaria faberi (SETFA), Alopecurus myosuroides (ALOMY), Echinochloa crus-galli (ECHCG), and Avena fatua (AVEFA).

[2] = tested on: Avena fatua (AVEFA); assay: Test Example B, post-emergence herbicidal test; settings: 312 h, evaluated after 13 days, 100=total damage to plant, 0=no damage to plant
Protocol: as §1

[3] = tested on: Echinochloa crus-galli (ECHCG); assay: Test Example B, post-emergence herbicidal test; settings: 312 h, evaluated after 13 days, 100=total damage to plant, 0=no damage to plant
Protocol: as §1

[4] = tested on: Alopecurus myosuroides (ALOMY); assay: Test Example B, pre-emergence herbicidal test; settings: 312 h, evaluated after 13 days, 100=total damage to plant, 0=no damage to plant
Protocol: as §1

[5] = tested on: Avena fatua (AVEFA); assay: Test Example B, pre-emergence herbicidal test; settings: 312 h, evaluated after 13 days, 100=total damage to plant, 0=no damage to plant
Protocol: as §1

[6] = tested on: Echinochloa crus-galli (ECHCG); assay: Test Example B, pre-emergence herbicidal test; settings: 312 h, evaluated after 13 days, 100=total damage to plant, 0=no damage to plant
Protocol: as §1

[7] = tested on: Alopecurus myosuroides (ALOMY); assay: Test Example 1, post-emergence herbicidal test; settings: 360 h, evaluated 15 days later, 100=total damage to plant, 0=no damage to plant
Protocol: (§2) Monocotyledonous and dicotyledonous test plants were sown in standard soil in pots. After cultivation for one day (pre-emergence) or after 10 days cultivation (post-emergence) under controlled conditions in a glasshouse, the plants were sprayed with an aqueous spray solution derived from the formulation of the technical active ingredient in 0.6 ml acetone and 45 ml formulation solution containing 10.6% Emulsogen EL (Registry number 61791-12-6), 42.2% N-methylpyrrolidone, 42.2% dipropylene glycol monomethyl ether (Registry number 34590-94-8) and 0.2% X-77 (Registry number 11097-66-8). The test plants were then grown in a greenhouse under optimum conditions until, 15 days later for post-emergence and 20 days for pre-emergence, the test was evaluated (100=total damage to plant; 0=no damage to plant). Test Plants: Lolium perenne (LOLPE), Setaria faberi (SETFA), Digitaria sanguinalis (DIGSA), Alopecurus myosuroides (ALOMY), Echinochloa crus-galli (ECHCG) and Avena fatua (AVEFA), Post-Emergence Data: […]

[8] = tested on: Digitaria sanguinalis (DIGSA); assay: Test Example 1, post-emergence herbicidal test; settings: 360 h, evaluated 15 days later, 100=total damage to plant, 0=no damage to plant
Protocol: as §2

[9] = tested on: Avena fatua (AVEFA); assay: Test Example 1, post-emergence herbicidal test; settings: 360 h, evaluated 15 days later, 100=total damage to plant, 0=no damage to plant
Protocol: as §2

[10] = tested on: Lolium perenne (LOLPE); assay: Test Example 1, post-emergence herbicidal test; settings: 360 h, evaluated 15 days later, 100=total damage to plant, 0=no damage to plant
Protocol: as §2

[11] = tested on: Setaria faberi (SETFA); assay: Test Example 1, post-emergence herbicidal test; settings: 360 h, evaluated 15 days later, 100=total damage to plant, 0=no damage to plant, read-out: SEFTA damage to plant
Protocol: as §2

[12] = tested on: Echinochloa crus-galli (ECHCG); assay: Test Example 1, post-emergence herbicidal test; settings: 360 h, evaluated 15 days later, 100=total damage to plant, 0=no damage to plant
Protocol: as §2

[13] = tested on: Alopecurus myosuroides (ALOMY); assay: Test Example 1, pre-emergence herbicidal test; settings: 480 h, evaluated 20 days later, 100=total damage to plant, 0=no damage to plant
Protocol: as §2, with “Pre-Emergence” for “Post-Emergence”

[14] = tested on: Digitaria sanguinalis (DIGSA); assay: Test Example 1, pre-emergence herbicidal test; settings: 480 h, evaluated 20 days later, 100=total damage to plant, 0=no damage to plant
Protocol: as §2, with “Pre-Emergence” for “Post-Emergence”

[15] = tested on: Avena fatua (AVEFA); assay: Test Example 1, pre-emergence herbicidal test; settings: 480 h, evaluated 20 days later, 100=total damage to plant, 0=no damage to plant
Protocol: as §2, with “Pre-Emergence” for “Post-Emergence”

[16] = tested on: Lolium perenne (LOLPE); assay: Test Example 1, pre-emergence herbicidal test; settings: 480 h, evaluated 20 days later, 100=total damage to plant, 0=no damage to plant
Protocol: as §2, with “Pre-Emergence” for “Post-Emergence”

[17] = tested on: Setaria faberi (SETFA); assay: Test Example 1, pre-emergence herbicidal test; settings: 480 h, evaluated 20 days later, 100=total damage to plant, 0=no damage to plant, read-out: SEFTA damage to plant
Protocol: as §2, with “Pre-Emergence” for “Post-Emergence”

[18] = tested on: Echinochloa crus-galli (ECHCG); assay: Test Example 1, pre-emergence herbicidal test; settings: 480 h, evaluated 20 days later, 100=total damage to plant, 0=no damage to plant
Protocol: as §2, with “Pre-Emergence” for “Post-Emergence”

What does the source list for `CCc1ccc(-c2ccc(Cl)c(F)c2F)cc1C1=C(O)[C@H]2[C@H]3CC[C@H](C3)[C@H]2C1=O` [Compound T40]?
pest or weed control at 250 g/ha [1]: 90%; pest or weed control at 250 g/ha [2]: 90%; pest or weed control at 250 g/ha [3]: 100%; pest or weed control at 250 g/ha [4]: 50%; pest or weed control at 250 g/ha [5]: 60%; pest or weed control at 250 g/ha [6]: 100%

Which pest or weed control at 250 g/ha [1] does the source give for `CCc1ccc(-c2ccc(Cl)c(Cl)c2F)cc1C1=C(O)[C@H]2[C@H]3CC[C@H](C3)[C@H]2C1=O` [Compound T41] here?
Its pest or weed control at 250 g/ha is 0%.

What about the pest or weed control at 250 g/ha [2] of the same compound?
The pest or weed control at 250 g/ha was 60%.

What about the pest or weed control at 250 g/ha [3] of the same compound?
The pest or weed control at 250 g/ha was 90%.

What about the pest or weed control at 250 g/ha [4] of the same compound?
The pest or weed control at 250 g/ha was 0%.

And the pest or weed control at 250 g/ha [5]?
Its pest or weed control at 250 g/ha is 0%.

And the pest or weed control at 250 g/ha [6]?
The pest or weed control at 250 g/ha was 50%.

How did the pest or weed control at 250 g/ha [1] turn out when `CCc1ccc(-c2c(F)cc(Cl)cc2Cl)cc1C1=C(O)[C@H]2[C@H]3CC[C@H](CC3)[C@H]2C1=O` [Compound T42] was run?
The pest or weed control at 250 g/ha was 0%.

What about the pest or weed control at 250 g/ha [2] of the same compound?
Its pest or weed control at 250 g/ha is 40%.

What about the pest or weed control at 250 g/ha [3] of the same compound?
The pest or weed control at 250 g/ha was 80%.

And the pest or weed control at 250 g/ha [4]?
The pest or weed control at 250 g/ha was 0%.

What about the pest or weed control at 250 g/ha [5] of the same compound?
Its pest or weed control at 250 g/ha is 0%.

What about the pest or weed control at 250 g/ha [6] of the same compound?
Its pest or weed control at 250 g/ha is 0%.

What does the source list for `CCc1ccc(-c2ccc(Cl)c(F)c2Cl)cc1C1=C(O)[C@H]2[C@H]3CC[C@H](CC3)[C@H]2C1=O` [Compound T43]?
pest or weed control at 250 g/ha [1]: 70%; pest or weed control at 250 g/ha [2]: 30%; pest or weed control at 250 g/ha [3]: 100%; pest or weed control at 250 g/ha [4]: 0%; pest or weed control at 250 g/ha [5]: 20%; pest or weed control at 250 g/ha [6]: 40%

For `CCc1ccc(-c2ccc(Cl)c(F)c2F)cc1C1=C(O)[C@H]2[C@H]3CC[C@H](CC3)[C@H]2C1=O` [Compound T44], which pest or weed control at 250 g/ha [1] is on record?
Its pest or weed control at 250 g/ha is 90%.

And the pest or weed control at 250 g/ha [2]?
Its pest or weed control at 250 g/ha is 80%.

What about the pest or weed control at 250 g/ha [3] of the same compound?
Its pest or weed control at 250 g/ha is 100%.

What about the pest or weed control at 250 g/ha [4] of the same compound?
Its pest or weed control at 250 g/ha is 0%.

What about the pest or weed control at 250 g/ha [5] of the same compound?
The pest or weed control at 250 g/ha was 20%.

What about the pest or weed control at 250 g/ha [6] of the same compound?
The pest or weed control at 250 g/ha was 70%.

For `CCc1ccc(-c2ccc(F)cc2)cc1C1=C(O)[C@H]2[C@H]3CC[C@H](CC3)[C@H]2C1=O` [Compound T46], which pest or weed control at 250 g/ha [1] is on record?
The pest or weed control at 250 g/ha was 50%.

What about the pest or weed control at 250 g/ha [2] of the same compound?
The pest or weed control at 250 g/ha was 30%.

What about the pest or weed control at 250 g/ha [3] of the same compound?
The pest or weed control at 250 g/ha was 100%.

And the pest or weed control at 250 g/ha [4]?
The pest or weed control at 250 g/ha was 20%.

What about the pest or weed control at 250 g/ha [5] of the same compound?
The pest or weed control at 250 g/ha was 0%.

And the pest or weed control at 250 g/ha [6]?
The pest or weed control at 250 g/ha was 80%.

Which pest or weed control at 125 g/ha [7] does the source give for `Cc1cc(C)c(C2=C(O)[C@H]3[C@H]4CC[C@H](CC4)[C@H]3C2=O)c(C)c1` [Compound T47] here?
Its pest or weed control at 125 g/ha is 0%.

What about the pest or weed control at 125 g/ha [8] of the same compound?
The pest or weed control at 125 g/ha was 80%.

What about the pest or weed control at 125 g/ha [9] of the same compound?
Its pest or weed control at 125 g/ha is 40%.

What about the pest or weed control at 125 g/ha [10] of the same compound?
The pest or weed control at 125 g/ha was 40%.

And the pest or weed control at 125 g/ha [11]?
The pest or weed control at 125 g/ha was 60%.

And the pest or weed control at 125 g/ha [12]?
Its pest or weed control at 125 g/ha is 60%.

What about the pest or weed control at 250 g/ha [13] of the same compound?
The pest or weed control at 250 g/ha was 90%.

And the pest or weed control at 250 g/ha [14]?
Its pest or weed control at 250 g/ha is 100%.

And the pest or weed control at 250 g/ha [15]?
The pest or weed control at 250 g/ha was 50%.

What about the pest or weed control at 250 g/ha [16] of the same compound?
Its pest or weed control at 250 g/ha is 80%.

And the pest or weed control at 250 g/ha [17]?
The pest or weed control at 250 g/ha was 100%.

What about the pest or weed control at 250 g/ha [18] of the same compound?
Its pest or weed control at 250 g/ha is 70%.
